Marks after values point to notes of the source that are not given here.
Key:
[1] = test system: rumen fermentation parameters; test: In vivo test: rumen volatile fatty acids and ammonia nitrogen; conditions: rumen of sheep; for iso-valeric (VFA profile): control 1.60; for Valeric (VFA profile): control 1.69; for Butiric (VFA profile): control 3.69; for C2/C3 (acetate to propionate ratio): control 4.59; for iso-butiric (VFA profile): control 6.73; for Propionic (VFA profile): control 15.7; for NH3—N (ammonia Nitrogen concentration): control 42.5; for Acetic (VFA profile): control 70.6; for Total volatile fatty acid concentration: control 111.3
Description: (§1) The experimental design consisted of a cross-over design with 2 sheep per treatment in each period. The trial consisted in 3 consecutive periods of: 14 days of adaptation to the dose plus three consecutive days of methane measurements in chambers. This 14 days adaptation phase was established as the period necessary for wash out between different doses assayed in consecutive periods. During the last two days of methane measurements in chambers rumen contents samples were collected two hours after the morning feeding, sub sampled and immediately frozen prior DNA extraction and determination of volatile fatty acids and ammonia nitrogen concentration. Experimental animals were randomly allocated in three sub-groups of 2 animals and were assigned one of the three treatments (control, dose 1 and dose 2). The 3 sub-groups started the adaptation period with a gap of three days so they had the same number of adaptation days prior to methane measurement in the chambers. Each animal was held in cages with constant access to fresh water. The diet provided to the animals consisted of alfalfa hay chopped at 15 to 20 cm and concentrate in a proportion 1:1 at approximately 1.1 times the energy requirements maintenance level (Prieto et al, 1990) plus mineral-vitamin supplement. Fresh matter intake was monitored daily for each animal throughout the trial. The diet was provided to animals in two equal meals at 9.00 h and 14.00 h.
The additive was provided twice a day through the ruminal cannula at the same time as the diet. The corresponding amount to each dose was added into 10 grams of grounded concentrate and wrapped in cellulose paper immediately before it was placed in the rumen. In order to avoid the volatility of the active molecule, both additives were kept in a cold room at 4° C. where the daily process of dispensing it in the cellulose bags was carried out.
The doses were 50 (dose 1) and 500 (dose 2) mg/animal per day. The higher dose was reached after 3 days of gradual increases (50, 200 and 500 mg), so the whole adaptation period was consequently extended for 3 more days.
Volatile fatty acids were analysed by gas chromatography and ammonia N concentration by colorimetry according to (Cantalapiedra-Híjar et al. Journal of Animal Science. 87, 622-631, 2009).
Individual methane emissions, VFA profiles, ratio of acetate to propionate, ammonia N concentration, and log10 transformations of concentration of total bacteria, total protozoa and methanogenic archaea were analyzed for the following effects: additive dose, day of measurement, and their interaction using a repeated measures analysis of variance under the cross-over design arrangement of the experiment. The standard error of the mean (SEM) was computed for each analysis. No significant effect of the measuring day or its interaction with additive dose was detected in either experiments, so only the effect of the dose is included in the tables. Means were further compared using a least significant difference (LSD) procedure. The SPSS for Windows, version 14.0 (2005; SPSS Inc., Chicago, Ill.) was used for data entry and statistical analysis.

[2] = test system: protozoa (18SrRNA); test: In vivo test: qPCR of total protozoa in rumen contents; conditions: rumen of sheep; for Total protozoa concentration: control 2.38 × 10^6; for Total protozoa, log10: control 6.35
Description: as §1
(§2) Samples of rumen contents were freeze-dried and thoroughly mixed by physical disruption using a bead beater (Mini-bead Beater; BioSpec Products, Bartlesville, Okla., USA) before DNA extraction, which was performed from approximately 50 mg sample using the QIAamp® DNA Stool Mini Kit (Qiagen Ltd, West Sussex, UK) following the manufacturer's instructions with the modification that a higher temperature (95° C.) was used for lysis incubation. DNA samples were used as templates for quantitative real-time PCR (qPCR) amplification. The numbers of total bacteria, total protozoa and total methanogenic archaea were quantified by Real Time—PCR (qPCR).
(§3) Different primer sets were used to amplify 16S rRNA gene-targeted total bacteria (Maeda et al. FEMS Inmunology and Medical Microbiology 39, 81-86, 2003), and protozoa (Sylvester et al. Journal Dairy Science. 88, 2083-2095 2005). […] The amplification efficiency was evaluated for each pair of primers with the following program: 5 min cycle at 95° C., 40 cycles at 95° C. for 15 s, 60° C. for 30 s, 72° C. for 55 s and, 75° C. during 6 s for fluorescent emission measures. The melting curve was built by increasing temperature from 55° C. to 95° C. and reading were taken every 5° C. […] The absolute amount of bacteria, protozoa and methanogenic archaea expressed as the number of DNA copies, was determined by using standards. […]

[3] = test system: methanogenic archaea; test: In vivo test: qPCR of methanogenic archaea in rumen contents; conditions: rumen of sheep; for Methanogenic archaea, log10: control 3.59; for Methanogenic archaea concentration: control 5.60 × 10^3
Description: as §1, §2, §3

CCOC(=O)CCO[N+](=O)[O-] [Ethyl-3-nitrooxy propionate]
iso-valeric (VFA profile) ([1]; Dose 1 (50 mg/animal per day)): 1.50 mol/100 mol | Valeric (VFA profile) ([1]; Dose 1 (50 mg/animal per day)): 1.55^a mol/100 mol | Butiric (VFA profile) ([1]; Dose 1 (50 mg/animal per day)): 3.50 mol/100 mol | C2/C3 (acetate to propionate ratio) ([1]; Dose 1 (50 mg/animal per day)): 4.26^ab | iso-butiric (VFA profile) ([1]; Dose 1 (50 mg/animal per day)): 5.57^a mol/100 mol | Propionic (VFA profile) ([1]; Dose 1 (50 mg/animal per day)): 16.8^ab mol/100 mol | NH3—N (ammonia Nitrogen concentration) ([1]; Dose 1 (50 mg/animal per day)): 40.5 mg/100 ml | Acetic (VFA profile) ([1]; Dose 1 (50 mg/animal per day)): 71.0^a mol/100 mol | Total volatile fatty acid concentration ([1]; Dose 1 (50 mg/animal per day)): 123.3^a mmol/l | iso-valeric (VFA profile) ([1]; Dose 2 (500 mg/animal per day)): 1.76 mol/100 mol | Valeric (VFA profile) ([1]; Dose 2 (500 mg/animal per day)): 2.42^b mol/100 mol | Butiric (VFA profile) ([1]; Dose 2 (500 mg/animal per day)): 3.47 mol/100 mol | C2/C3 (acetate to propionate ratio) ([1]; Dose 2 (500 mg/animal per day)): 3.57^b | iso-butiric (VFA profile) ([1]; Dose 2 (500 mg/animal per day)): 8.06^b mol/100 mol | Propionic (VFA profile) ([1]; Dose 2 (500 mg/animal per day)): 18.8^b mol/100 mol | NH3—N (ammonia Nitrogen concentration) ([1]; Dose 2 (500 mg/animal per day)): 40.1 mg/100 ml | Acetic (VFA profile) ([1]; Dose 2 (500 mg/animal per day)): 65.5^b mol/100 mol | Total volatile fatty acid concentration ([1]; Dose 2 (500 mg/animal per day)): 104.1^b mmol/l | Total protozoa concentration ([2]; Dose 1 (50 mg/animal per day)): 2.08 × 10^6 copy gene numbers/g fresh matter | Total protozoa, log10 ([2]; Dose 1 (50 mg/animal per day)): 6.28 log10 | Total protozoa concentration ([2]; Dose 2 (500 mg/animal per day)): 2.77 × 10^6 copy gene numbers/g fresh matter | Total protozoa, log10 ([2]; Dose 2 (500 mg/animal per day)): 6.43 log10 | Methanogenic archaea, log10 ([3]; Dose 1 (50 mg/animal per day)): 3.57 log10 | Methanogenic archaea concentration ([3]; Dose 1 (50 mg/animal per day)): 5.43 × 10^3 copy gene numbers/g fresh matter | Methanogenic archaea, log10 ([3]; Dose 2 (500 mg/animal per day)): 3.45 log10 | Methanogenic archaea concentration ([3]; Dose 2 (500 mg/animal per day)): 4.34 × 10^3 copy gene numbers/g fresh matter
